Source: patent US20160367515A1, “Improved delivery of poorly water soluble drugs with aphafetoprotein stabilized with metal ions” (Oy Safemed Ltd., priority 2013, published 2016)

How the values were obtained:
[1] = system: mammary carcinoma cell line MCF-7; test: MTS cell viability assay, mammary carcinoma MCF-7 cells; assay type: cell-based, human
Experimental: Effect of binding of Zn ions to rhAFP and sugar-free rhAFPo species was tested by measuring of their dose-dependent tumor-suppressive effect for mammary carcinoma cell line MCF-7 in vitro, as it was earlier described for natural embryonic eAFP (Dudich et al., Eur. J. Biochem. 1999; 266: 750-761). MCF-7 cells were incubated with various doses of rhAFP (rhAFPo), Zn-rhAFP (Zn-rhAFPo) or with natural embryonic eAFP for 48 h, and thereafter their viability was assessed by the colorimetric MTS assay (FIG. 1A).
Cell viability was assessed by the Promega CellTiter 96 AQueous Non-Radioactive Cell Proliferation MTS assay (Promega, USA) according to manufacturer's instructions. Cells were incubated with various AFP samples for 48 h as described above, followed by incubation with MTS-test reagents and measuring of the light adsorption of the formasan, appeared in the lysed cell supernatants at 492 nm by using VICTOR-1420 multilabel counter (Wallac, Finland). Intact cell cultures incubated without additions were taken as a control. By such a way the quantity of viable cells capable to internalize MTS dye was determined. Results were expressed as the mean optical density (OD)±the standard error of the mean triplicate cultures. The extent of cell viability was calculated as an average OD in experimental wells after addition of testing compounds in relation to untreated control wells, that was taken as 100%
To evaluate the efficacy of preparations rhAFP/Ptx and Zn-rhAFP/Ptx we compared the cytotoxic effect of Ptx alone or that in combination with rhAFP or Zn-rhAFP for taxol-resistant human hepatoma HepG2 cells, human breast carcinoma cells MCF-7, and rat glioma C6 cell lines in vitro. RhAFP or Zn-rhAFP were incubated with various doses of Ptx at 37° C. for 1 h to allow complex formation with molecular ratios rhAFP:Ptx 1:1; 1:3 or 1:5 and thereafter the mixtures were introduced into the cell culture for 48 hrs. Cytotoxicity was measured by MTS assay.
Various doses of rhAFP/Ptx complexes were tested for their effectiveness for inhibition of human mammary carcinoma MCF-7, human hepatoma HepG2, and rat glioma C6 tumor cell growth in vitro. First, we optimized drug concentration and rhAFP amount to the extent that it would not generate an extensive cytotoxic effect alone. Then, the cells were seeded in 96-well plates at a density of 3×10^3/well in 100 μl of medium for 24 hrs to allow adherence. The next day, rhAFP or Zn-rhAFP combined with Ptx at the molecular ratios of 1:1; 1:3 or 1:5 were added into the each well. After 48 h of incubation MTS assays were performed to determine survival rate of the cells. All the experiments were repeated at least three times. The results were expressed as mean±standard error (SE).
The coefficient of drug interaction (CDI) was calculated to analyze the effects of rhAFP and Ptx combinations. CDI was calculated by the equation: CDI=SRAFP/drug[…]/SRAFP×SRdrug, where SRAFP/drug is the average survival rate of combination group, and SRAFP or SRdrug are the average survival rates of the single agent groups. According to our evaluation, CDI values <1, =1 or >1 indicate that the combinations are synergistic, additive or antagonistic respectively.
The values of Zn-rhAFP/Ptx or rhAFP/Ptx complex concentration, which inhibited the cell viability by 50% (IC50) when compared to untreated control, were calculated according to the Hill's equation (sigmoid model of concentration-response curve) from the curves of dependence of the relative percentage of viable cells from AFP concentration expressed as mean values from three independent experiments±SD.
In order to confirm the hypothesis that the combination of Zn-rhAFP and various low water-soluble chemotherapeutic agents would reveal increased anti-tumor efficacy, different cytotoxic compounds were tested in combination with Zn-rhAFP for their cell-killing effect in MCF-7 cells in vitro. […]

[2] = system: normal CBA mice splenocytes; test: Unspecific toxicity against normal splenocytes, trypan blue staining; details: 48 h, standalone
Experimental: Zn-rhAFP was prepared in a molecular ratio Zn:rhAFP=4:1. Viable cells were visualized by trypan blue staining. The data are expressed as percentage of viable cells in experimental cell cultures relative to untreated control. Mean of three independent experiments is shown.
Viable cells were visualized by trypan blue staining.

NF-κB p65 = test: Immunofluorescence of activated NF-κB p65 nuclear translocation in MCF-7 cells; assay type: cell-based, human; details: MCF-7, 2 h treatment
Experimental: The cells were incubated with paclitaxel (10 μM) with addition of Zn-rhAFP (3.0 μM) and/or curcumin (3.0 μM) for 2 h and then assessed for localization of p65 by immunocytochemistry. Activated […] (p65) was detected by treatment of the cells with phospho […] p65 rabbit polyclonal antibody (Cell signaling technologies, USA) followed by secondary goat anti-rabbit Ab-Alexa594 red (Molecular Probes, USA). Cells were visualized at magnification ×400 by fluorescent microscope Axioplan; Zeiss (Germany) equipped with corresponding color filter kits.
The relative amount of p65 in the cytosol and nucleus of the cells was assessed by ImageJ software and was taken as 100% in the control (cytosol+nucleus). Total amount of activated p65 in control untreated cells was taken as 100%. The experimental data are represented as percentage of control±SD from three independent calculations in various observation fields.
MCF-7 cells were seeded on the microscopic plates Lab-Tek™ Chamber Slides (Thermo Fisher Scientific-Nunc, Germany) and cultivated at 37° C. at 5% CO2 atmosphere for 48 h to allow cell adaptation to reach 80% confluence. To test effects of chemotherapeutic preparations on the activation and translocation of NF-κB, cells were treated for 2 h with Ptx (10 nM), curcumin (30 μM); Zn-rhAFP (1.4 μM), or their combination Zn-rhAFP/Ptx/Cur, after which they were fixed with 100% ice-cold acetone. Control cells were incubated without additions and their NF-κB content was taken as 100%. Activated NF-κB was detected by treatment of the cells with phospho NF-κB p65 rabbit polyclonal antibody (Cell signaling technologies, USA) followed by the secondary goat anti-rabbit antibodies Ab-Alexa594 (Molecular Probes, USA). Nuclei were visualized by staining with DAPI (Molecular probes, USA). Cells were visualized at magnification ×400 by fluorescent microscope Axioplan (Zeiss, Germany) equipped with corresponding color filter kits. Distribution throughout the cell of the activated p65 was assessed by the ImageJ software and was taken as 100% in the control samples (cytosol+nucleus).

CC(=O)O[C@H]1C(=O)[C@@]2(C)[C@H]([C@H](OC(=O)c3ccccc3)[C@]3(O)C[C@H](OC(=O)[C@H](O)[C@@H](NC(=O)c4ccccc4)c4ccccc4)C(C)=C1C3(C)C)[C@]1(OC(C)=O)CO[C@@H]1C[C@@H]2O [Ptx, paclitaxel]
IC50 ([1]; Homo sapiens, MCF7, MCF-7, 48 h, compositions of paclitaxel with rhAFP or Zn-rhAFP, mean of three experiments, read-out: IC50): > 10 µM | Coefficient for drug interaction (CDI) ([1]; MCF7 + Zn-rhAFP 1.4 μM (Zn:rhAFP 4:1) + drug, 48 h): 0.80 | cytotoxic effect against normal splenocytes [2]: strong dose-dependent growth suppression | effect on activated p65 (RelA) in the cell nucleus (NF-κB p65): significant enhance of activated p65 localized in the nuclear region
